“And” between values parts separate entries of the source, which are not always exact repeats. Identical values can stand only once. Like-named read-outs stand apart in the source and are kept apart here.
Legend:
[1] = target: T1, Human full-length GR (Homo sapiens, UniProt P04150); test: GR cell-based luciferase reporter assay, agonist and antagonist mode; details: U2OS stable reporter cells; antagonist mode with 10 nM dexamethasone; concentration range tested 100 μM to 100 μM (so in the source)
T1 sequence (P04150 1-777): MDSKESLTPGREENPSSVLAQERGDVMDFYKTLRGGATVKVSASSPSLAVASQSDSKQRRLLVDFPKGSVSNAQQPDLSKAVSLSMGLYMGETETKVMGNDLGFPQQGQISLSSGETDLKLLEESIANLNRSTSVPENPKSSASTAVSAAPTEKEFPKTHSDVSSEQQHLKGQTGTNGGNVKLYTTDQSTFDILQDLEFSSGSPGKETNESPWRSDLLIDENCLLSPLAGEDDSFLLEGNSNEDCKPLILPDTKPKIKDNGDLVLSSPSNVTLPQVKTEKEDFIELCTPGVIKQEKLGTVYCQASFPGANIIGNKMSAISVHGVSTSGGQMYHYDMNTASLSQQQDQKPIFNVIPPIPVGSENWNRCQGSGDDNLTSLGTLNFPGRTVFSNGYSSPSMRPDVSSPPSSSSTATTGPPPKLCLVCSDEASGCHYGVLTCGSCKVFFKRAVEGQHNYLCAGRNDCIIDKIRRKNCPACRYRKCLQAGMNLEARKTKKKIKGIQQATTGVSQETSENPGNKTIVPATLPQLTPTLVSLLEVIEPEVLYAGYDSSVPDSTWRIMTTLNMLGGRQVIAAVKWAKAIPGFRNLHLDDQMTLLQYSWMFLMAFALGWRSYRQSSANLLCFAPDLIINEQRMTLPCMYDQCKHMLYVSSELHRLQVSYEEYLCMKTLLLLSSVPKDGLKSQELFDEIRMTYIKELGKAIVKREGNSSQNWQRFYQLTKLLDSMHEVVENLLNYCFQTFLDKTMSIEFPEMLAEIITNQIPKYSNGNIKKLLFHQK

[2] = system: HEK293 cells; test: HEK293 viability assay (ATPlite 1step); format: cell-based, human; details: non-transfected HEK293, 24 h, ATP level; Trial 2; Low = activity too low for exact value
Method: The non-transfected HEK293 cells were seeded to the 384-well plates at 5000 cell/well, compounds were added and the timing of all subsequent steps was exactly the same as in the reporter assays. […] After 24 h of compound incubation with cells, the viability of cells was measured by determining the ATP level in the samples using luciferase cell viability assay, ATPlite 1step (Perkin Elmer, USA).

[3] = target: T2, Human full-length ERβ (Homo sapiens, UniProt Q92731); test: ERβ cell-based luciferase reporter assay, agonist mode
T2 construct: expression vector encoding human full-length ERα or ERβ; expressed in transfected cells; host or cells: HEK293, transiently transfected
T2 sequence (Q92731 whole entry): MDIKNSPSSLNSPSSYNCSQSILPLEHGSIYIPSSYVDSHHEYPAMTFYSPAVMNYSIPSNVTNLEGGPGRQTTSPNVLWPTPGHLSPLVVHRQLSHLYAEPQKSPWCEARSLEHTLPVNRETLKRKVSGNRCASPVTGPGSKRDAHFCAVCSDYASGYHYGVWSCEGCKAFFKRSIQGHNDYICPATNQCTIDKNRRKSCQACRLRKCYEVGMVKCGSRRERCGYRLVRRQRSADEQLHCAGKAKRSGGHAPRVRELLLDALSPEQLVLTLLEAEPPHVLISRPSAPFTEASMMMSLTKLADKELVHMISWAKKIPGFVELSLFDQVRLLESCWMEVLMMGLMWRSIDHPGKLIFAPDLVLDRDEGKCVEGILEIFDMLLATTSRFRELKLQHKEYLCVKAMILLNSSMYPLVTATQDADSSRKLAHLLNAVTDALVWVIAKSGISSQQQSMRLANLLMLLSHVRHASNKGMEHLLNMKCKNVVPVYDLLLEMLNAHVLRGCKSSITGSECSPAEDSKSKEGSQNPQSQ
Method: (§1) The selectivity and potency of the various compounds was carried out via in vitro testing in ERα and ERβ cell-based reporter assays. The activity of the selected compounds was determined in the cell-based reporter assays in HEK293 cells.
(§2) The HEK293 cells were propagated in a monolayer in phenol red-free DMEM supplemented with 10% fetal bovine serum, 2 mM Glutamax and penicillin/streptomycin (Thermo Fisher Scientific, MA, USA) and incubated in a 5% CO2 humidified atmosphere at 37° C. Right before transfection, the growth medium was changed to phenol red-free DMEM supplemented with 4% HyClone Fetal Bovine Serum, Charcoal/Dextran Treated (GE Healthcare Life Sciences, USA) and 2 mM Glutamax (starvation medium). The cells were transfected with the expression vector encoding human full-length ERα or ERβ and with the reporter vector containing 3 repeats of estrogen responsive elements (ERE) followed by the minimal thymidine kinase promoter from the herpes simplex virus in the pGL4 vector (Promega, USA). Luciferase served as a reporter gene. The transfection was carried out in 10 cm dishes (Nunc) in the starvation medium. After 24 hours, the cells were trypsinized, counted and seeded to cell culture treated, white, solid 1536-well plates (Corning Inc., NY, USA) at 1500 cells/well in 4 μl of total media volume. The compounds to be tested were diluted in DMSO and transferred to the cells using an acoustic dispenser Echo 520 (Labcyte). The compounds were tested at least at 12 different concentration points in the range from […] to 100 μM, in triplicates. Luciferase activity was determined after 24 hours of incubation with compounds with Britelite plus luciferase reporter gene assay reagent (Perkin Elmer, USA), according to the manufacturer protocol. The luciferase signal was measured on an Envison multimode plate reader (Perkin Elmer, USA). Data were collected and processed using an in-house built LIMS system ScreenX and GraphPad Prism software. EC50 values were calculated using a regression function (dose response, variable slope).
(§3) The selectivity and potency of various example compounds in the second library was carried out via in vitro testing in ERα and ERβ cell-based reporter assays.

[4] = target: T3, Human full-length ERα (Homo sapiens, UniProt P03372); test: ERα cell-based luciferase reporter assay, agonist mode; details: for EC50: Table 8, second library, read-out: ERα agonism EC50
T3 construct: expression vector encoding human full-length ERα or ERβ; expressed in transfected cells; host or cells: HEK293, transiently transfected
T3 sequence (P03372 1-595): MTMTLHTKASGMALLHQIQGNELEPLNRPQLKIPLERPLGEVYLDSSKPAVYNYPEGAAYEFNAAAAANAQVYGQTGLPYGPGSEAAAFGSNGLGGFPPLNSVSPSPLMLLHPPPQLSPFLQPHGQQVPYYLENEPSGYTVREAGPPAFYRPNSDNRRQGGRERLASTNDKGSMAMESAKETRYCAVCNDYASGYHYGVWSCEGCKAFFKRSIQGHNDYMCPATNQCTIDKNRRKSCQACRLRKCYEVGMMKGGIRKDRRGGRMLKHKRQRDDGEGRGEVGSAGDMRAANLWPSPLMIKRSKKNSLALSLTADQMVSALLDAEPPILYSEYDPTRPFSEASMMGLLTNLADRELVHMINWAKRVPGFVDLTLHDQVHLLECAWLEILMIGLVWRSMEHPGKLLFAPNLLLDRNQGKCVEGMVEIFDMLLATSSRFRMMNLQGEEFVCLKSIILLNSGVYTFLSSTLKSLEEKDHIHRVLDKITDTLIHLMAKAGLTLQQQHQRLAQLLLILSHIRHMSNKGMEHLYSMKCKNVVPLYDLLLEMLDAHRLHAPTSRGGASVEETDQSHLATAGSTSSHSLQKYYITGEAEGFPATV
Method: as §1, §2, §3

[5] = target: T4, Human full-length AR (Homo sapiens, UniProt P10275); test: AR cell-based luciferase reporter assay, agonist and antagonist mode; details: U2OS stable reporter cells; antagonist mode with 2 nM DHT; concentration range tested 100 μM to 100 μM (so in the source)
T4 sequence (P10275 1-920): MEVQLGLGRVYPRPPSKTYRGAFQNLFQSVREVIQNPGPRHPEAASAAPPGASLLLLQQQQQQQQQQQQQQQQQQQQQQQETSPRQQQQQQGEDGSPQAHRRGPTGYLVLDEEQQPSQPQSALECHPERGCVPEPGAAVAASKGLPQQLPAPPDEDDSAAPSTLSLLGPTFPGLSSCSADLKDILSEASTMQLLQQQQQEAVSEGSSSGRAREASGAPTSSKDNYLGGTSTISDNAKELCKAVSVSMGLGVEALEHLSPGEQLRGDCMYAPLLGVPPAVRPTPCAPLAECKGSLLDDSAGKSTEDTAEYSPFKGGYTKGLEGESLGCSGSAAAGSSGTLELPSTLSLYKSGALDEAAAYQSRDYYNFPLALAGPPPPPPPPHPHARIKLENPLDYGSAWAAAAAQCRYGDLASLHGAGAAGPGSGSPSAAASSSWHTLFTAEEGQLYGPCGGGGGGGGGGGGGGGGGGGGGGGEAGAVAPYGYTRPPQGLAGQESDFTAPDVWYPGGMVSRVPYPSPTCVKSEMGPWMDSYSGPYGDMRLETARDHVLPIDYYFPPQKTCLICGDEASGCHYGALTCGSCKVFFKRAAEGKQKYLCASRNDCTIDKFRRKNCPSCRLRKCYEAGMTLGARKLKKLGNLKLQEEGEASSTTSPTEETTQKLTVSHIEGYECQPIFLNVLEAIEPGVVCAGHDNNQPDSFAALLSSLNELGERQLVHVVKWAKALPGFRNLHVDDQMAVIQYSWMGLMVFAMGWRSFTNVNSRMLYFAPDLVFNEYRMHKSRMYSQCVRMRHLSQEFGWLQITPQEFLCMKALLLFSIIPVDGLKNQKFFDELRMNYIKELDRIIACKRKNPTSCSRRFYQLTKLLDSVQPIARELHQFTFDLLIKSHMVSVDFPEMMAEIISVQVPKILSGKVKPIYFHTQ

[6] = Table 8, second library, read-out: ERβ agonism EC50
[7] = HEK293, 24 hours, Trial 2 (believed more reliable), low = activity detected but too low for exact value

Molecule: C[C@]12CC[C@@H]3c4ccc(O)cc4CC[C@H]3[C@@H]1CC[C@@H]2O [Compound E2, Estradiol, reference compound]
- agonistic or antagonistic activities on GR [1]: no agonistic or antagonistic activities
- HEK293 viability IC50 (μM) [2]: Low

Molecule: CCCCCC[C@H](O)C12CCC(c3ccc(O)cc3)(CC1)CC2 [Compound 28]
- EC50 [3, 6]: 4.12 µM
- EC50 [4]: > 10 µM

Molecule: N#CC(Cc1ccc(O)cc1)c1ccc(O)cc1 (stereo not drawn) [DPN, Diarylpropionitrile]
- agonistic or antagonistic activities on AR [5]: no agonistic or antagonistic activities
- agonistic or antagonistic activities on GR [1]: no agonistic or antagonistic activities
- HEK293 viability IC50 (μM) [2]: Low

Molecule: CCCc1c(-c2ccc(O)cc2)nn(-c2ccc(O)cc2)c1-c1ccc(O)cc1 [PPT, Propyl pyrazole triol, reference compound]
- ERβ EC50 (nM) [3, 7]: low
- ERβ Log(EC50) [3, 7]: low
- ERα Efficacy ([4]; HEK293, 24 hours, Trial 2): 101

Molecule: CCCCCC[C@H](O)C1C2CC3CC1CC(c1ccc(O)cc1)(C3)C2 (stereo partly drawn) [Compound 30]
- EC50 [3, 6]: > 10 µM
- EC50 [4]: > 10 µM

Molecule: 1-(4-hydoxyphenyl)-12-(1-hydroxyheptyl)-1,12-dicarba-closo-dodecaborane [Compound 06]
- ERβ Efficacy ([3]; HEK293, 24 hours, Trial 2): 100 and 103
- ERβ Log(EC50) [3, 7]: −7.71 and −7.76
- EC50 ([3]; HEK293, 24 hours, Trial 2 (believed more reliable), low = activity detected but too low for exact value, read-out: ERβ EC50): 0.019 µM and 0.017 µM
- EC50 ([3]; text of Example 19, luciferase reporter-based cell assay in HEK cells, read-out: EC50 at ERβ): 0.005 µM
- agonistic or antagonistic activities on GR [1]: no agonistic or antagonistic activities
- IC50 [2]: 18 µM and 17 µM

Molecule: CCCCCC[C@H](O)c1ccc(-c2ccc(O)cc2)cc1 [Compound 26]
- EC50 [3, 6]: > 10 µM
- EC50 [4]: > 10 µM

Molecule: CCCCCC[C@H](O)C1CCC(c2ccc(O)cc2)CC1 (stereo partly drawn) [Compound 27]
- EC50 [3, 6]: > 10 µM
- EC50 [4]: > 10 µM

Molecule: CCCCCC[C@@H](O)C12CCC(c3ccc(O)cc3)(CC1)CC2 [Compound 29]
- EC50 [3, 6]: > 10 µM
- EC50 [4]: > 10 µM

Source: US20250281515A1, “CARBORANE COMPOUNDS, CARBORANE ANALOGS, AND METHODS OF USE THEREOF” (Ohio State Innovation Foundation, priority 2018, published 2025)
